# Laboratory results: patent US7795385B2, “Use of bombesin/gastrin-releasing peptide antagonists for the treatment of inflammatory conditions, acute lung injury and bipolar disorder” (Bexar Global, Inc., priority 2004, dated 2010)
# Legend:
# [1] = system: patient with rheumatoid arthritis; experiment: Administration to a patient with rheumatoid arthritis; type: in vivo, human; details: 6 mg RC-3095 twice daily s.c.
# Method: The composition consists of a white lyophilised cake in a 4 ml injection vial. One injection vial will be reconstituted with 2 ml water for injection.
# A patient with rheumatoid arthritis, started on March 22 with 6 mg of RC-3095, twice daily. Application subcutaneously.
# At baseline visit the patient presented with joint pain grade 3, joint inflammation grade 2 and depression grade 2.
# Before start with RC-3095 they were already taken methotrexate, subcutaneously, once a week, and corticosteroids.
# They were followed every two weeks by physical examination and laboratorial exams.
# [2] = system: amphetamine (AMPH)-induced hyperactivity in rats; experiment: Amphetamine-induced hyperactivity test (open field, model of mania); type: in vivo, male Wistar rats; details: RC-3095 0.1, 1.0 or 10.0 mg/kg i.p.
# Method: Animals. A total of 120 male Wistar rats (age, 2.5-3 months; weight, 220-340 g) from an inhouse breeding colony were used. They were housed in plastic cages, 5 to a cage, with water and food freely available, under a 12-h light/dark cycle (lights on at 7:00 h). All experimental procedures were performed in accordance with the NIH Guide for the Care and Use of Laboratory Animals and the Brazilian Society for Neuroscience and Behavior (SBNeC) recommendations for animal care.
# Drugs and pharmacological procedures. d-amphetamine (AMPH, 2.0 mg/kg) and RC-3095 (a gift from Dr. J. Engel, Zentaris GmbH, Germany) were dissolved in saline (SAL, 0.9% NaCl). All solutions were prepared immediately prior to administration. Animals were given a 10 ml/kg intraperitoneal (i.p.) injection of SAL or RC-3095 (0.1, 1.0 or 10.0 mg/kg) followed by an i.p. injection of SAL or AMPH […] 30 min later. Thus, the resulting experimental groups were: SAL/SAL; SAL/AMPH, RC-3095 0.1 mg/kg/AMPH, RC-3095 1.0 mg/kg/AMPH, RC-3095 10.0 mg/kg/AMPH, RC 3095 0.1 mg/kg/SAL; RC-3095 1.0 mg/kg/SAL; and RC-3095 10.0 mg/kg/SAL.
# Hyperactivity test. […] Crossings of the black lines and rearings performed were counted. […]
# Statistical analysis. All data are presented as mean±S.E.M. Differences among experimental groups were determined by ANOVA. […]
smiles,measurement,setting,value
"CC(C)C[C@@H](CN[C@@H](CC(C)C)C(N)=O)NC(=O)[C@H](Cc1c[nH]cn1)NC(=O)CNC(=O)[C@@H](NC(=O)[C@H](C)NC(=O)[C@H](Cc1c[nH]c2ccccc12)NC(=O)[C@H](CCC(N)=O)NC(=O)[C@H]1Cc2c([nH]c3ccccc23)CN1)C(C)C [RC-3095, H-D-Tpi-Gln-Trp-Ala-Val-Gly-His-Leu-psi-Leu-NH2]",adverse events,[1],only local (nodes and pruritus)
same,other behavioral measures (sedation),[2],did not alter
